The test system of data set [1] is Rattus norvegicus. Put plainly: Activity against high density lipoprotein cholesterol level in obese female Zucker rat serum after 1 week at 100 mg/kg (percent change from pre-treatment). The format is functional.
The test system of the next data set is Hepatocyte. Put plainly: Inhibition of lipid synthesis in primary rat hepatocytes by incorporation radiolabeled acetate into cellular lipids. The format is functional, cell-based, Sprague-Dawley.
The test system of data set [2] is Rattus norvegicus. Put plainly: Activity against non high density lipoprotein cholesterol level in obese female Zucker rat serum after 1 week at 100 mg/kg (percent change from pre-treatment). Format: functional.
The subject of data set [3] is Rattus norvegicus. Put plainly: Activity against non high density lipoprotein cholesterol level in obese female Zucker rat serum after 2 weeks at 100 mg/kg (percent change from pre-treatment). Format: functional.
Data set [4] relates to Rattus norvegicus. Put plainly: Activity against high density lipoprotein cholesterol level in obese female Zucker rat serum after 2 weeks at 100 mg/kg (percent change from pre-treatment). The format is functional.
The subject of data set [5] is Rattus norvegicus. Put plainly: Activity against triglyceride level in obese female Zucker rat serum after 1 week at 100 mg/kg (percent change from pre-treatment). The format is functional.
Data set [6] relates to Rattus norvegicus. Put plainly: Activity against triglyceride level in obese female Zucker rat serum after 2 weeks at 100 mg/kg (percent change from pre-treatment). Format: functional.
The test system of data set [7] is Rattus norvegicus. Put plainly: Tolerability of compound upto 2000 mg/kg. The format is organism-based. On the set-up: dose 2000 mg/kg. The following applies: in vivo.
Data set [8] concerns Rattus norvegicus. Put plainly: Activity against non high density lipoprotein cholesterol level in obese female Zucker rat serum after 1 week at 30 mg/kg (percent change from pre-treatment). The format is functional.
Data set [9] concerns Rattus norvegicus. Put plainly: Activity against non high density lipoprotein cholesterol level in obese female Zucker rat serum after 2 weeks at 30 mg/kg (percent change from pre-treatment). The format is functional.
The subject of data set [10] is Rattus norvegicus. Put plainly: Activity against high density lipoprotein cholesterol level in obese female Zucker rat serum after 1 week at 30 mg/kg (percent change from pre-treatment). Format: functional.
The test system of data set [11] is Rattus norvegicus. Put plainly: Activity against high density lipoprotein cholesterol level in obese female Zucker rat serum after 2 weeks at 30 mg/kg (percent change from pre-treatment). Format: functional.
Data set [12] relates to Rattus norvegicus. Put plainly: Activity against triglyceride level in obese female Zucker rat serum after 1 week at 30 mg/kg (percent change from pre-treatment). Format: functional.
The test system of data set [13] is Rattus norvegicus. Put plainly: Activity against triglyceride level in obese female Zucker rat serum after 2 weeks at 30 mg/kg (percent change from pre-treatment). Format: functional.
Data set [14] deals with Rattus norvegicus. Put plainly: Activity against non high density lipoprotein cholesterol level in obese female Zucker rat serum after 1 week at 53 mg/kg (percent change from pre-treatment). The format is functional.
Data set [15] deals with Rattus norvegicus. Put plainly: Activity against high density lipoprotein cholesterol level in obese female Zucker rat serum after 2 weeks at 53 mg/kg (percent change from pre-treatment). The format is functional.
The test system of data set [16] is Rattus norvegicus. Put plainly: Activity against triglyceride level in obese female Zucker rat serum after 1 week at 53 mg/kg (percent change from pre-treatment). Format: functional.
Data set [17] has as its system Rattus norvegicus. Put plainly: Activity against triglyceride level in obese female Zucker rat serum after 2 weeks at 53 mg/kg (percent change from pre-treatment). Format: functional.
Data set [18] has as its system Rattus norvegicus. Put plainly: Activity against non high density lipoprotein cholesterol level in obese female Zucker rat serum after 2 weeks at 53 mg/kg (percent change from pre-treatment). Format: functional.
The subject of data set [19] is Rattus norvegicus. Put plainly: Activity against high density lipoprotein cholesterol level in obese female Zucker rat serum after 1 week at 53 mg/kg (percent change from pre-treatment). The format is functional.
In data set [20] the test system is Rattus norvegicus. Put plainly: Activity against high density lipoprotein cholesterol level in obese female Zucker rat serum after 2 weeks at 80 mg/kg (percent change from pre-treatment). Format: functional.
Data set [21] concerns Rattus norvegicus. Put plainly: Activity against triglyceride level in obese female Zucker rat serum after 1 week at 80 mg/kg (percent change from pre-treatment). Format: functional.
Data set [22] relates to Rattus norvegicus. Put plainly: Activity against triglyceride level in obese female Zucker rat serum after 2 weeks at 80 mg/kg (percent change from pre-treatment). Format: functional.
The subject of data set [23] is Rattus norvegicus. Put plainly: Activity against non high density lipoprotein cholesterol level in obese female Zucker rat serum after 1 week at 80 mg/kg (percent change from pre-treatment). The format is functional.
For data set [24], the system named is Rattus norvegicus. Put plainly: Activity against non high density lipoprotein cholesterol level in obese female Zucker rat serum after 2 weeks at 80 mg/kg (percent change from pre-treatment). Format: functional.
The test system of data set [25] is Rattus norvegicus. Put plainly: Activity against high density lipoprotein cholesterol level in obese female Zucker rat serum after 1 week at 80 mg/kg (percent change from pre-treatment). The format is functional.
The mark [26] stands for this setting: Rattus norvegicus, Sprague-Dawley, Hepatocyte, read-out: IC50.

Consider `CC(C)(CO)CCCCOCCCCC(C)(C)CO`, for which the Activity in the data set with Rattus norvegicus [1] was 234%; with Rattus norvegicus [2], -38%; in the data set with Rattus norvegicus [3], 11%; in the data set on Rattus norvegicus [4] it was 366%; with Rattus norvegicus [5], -77%; in the data set with Rattus norvegicus [6], -71%. Also, the result in the data set with Rattus norvegicus [7] was Active. In addition, the IC50 in the data set with Hepatocyte (setting [26]) is 10.7 µM.
Consider `CC(C)(CO)CCCCCCCCCC(C)(C)CO`, for which the Activity in the data set with Rattus norvegicus [1] is reported as 189%; in the data set with Rattus norvegicus [2] it was -67%; with Rattus norvegicus [3] it was -75%; with Rattus norvegicus [4] it was 137%; with Rattus norvegicus [5], -83%; with Rattus norvegicus [6], -82%.
For the molecule `CC(C)(CO)CCCCS(=O)(=O)CCCCC(C)(C)CO`, the Activity with Rattus norvegicus [1] was 15%; in the data set on Rattus norvegicus [2] it was -46%; in the data set with Rattus norvegicus [3], -34%; in the data set on Rattus norvegicus [4], -13%; in the data set on Rattus norvegicus [5], -34%; with Rattus norvegicus [6] it was -19%. Besides, in the data set on Hepatocyte (setting [26]), the IC50 amounted to 8.9 µM.
Regarding `CC(=O)C(CCCCC(C)(C)CO)CCCCC(C)(C)CO`, in the data set with Hepatocyte (setting [26]), the IC50 was found to be 46 µM. Further, the Activity with Rattus norvegicus [8] is listed as 15%; in the data set on Rattus norvegicus [9], 52%; with Rattus norvegicus [10], -14%; in the data set on Rattus norvegicus [11], -19%; in the data set on Rattus norvegicus [12] it was -6%; in the data set on Rattus norvegicus [13] it was 22%.
For `CC(C)(CO)CCCCNCCCCC(C)(C)CO`, the Activity with Rattus norvegicus [14] is recorded as 78%; in the data set with Rattus norvegicus [15], 16%; in the data set on Rattus norvegicus [16] it was -24%; with Rattus norvegicus [17], -32%; in the data set on Rattus norvegicus [18], -10%; in the data set on Rattus norvegicus [19], -23%. The IC50 entry in the data set with Hepatocyte (hepatocyte) was “Not Active”.
In the case of `CC(C)(CO)CCCCN(O)CCCCC(C)(C)CO`, in the data set on Hepatocyte (setting [26]), the IC50 stood at 63 µM. Moreover, the Activity in the data set with Rattus norvegicus [8] is -40%; with Rattus norvegicus [9], -5%; with Rattus norvegicus [10], 27%; in the data set on Rattus norvegicus [11], 19%; with Rattus norvegicus [12], -26%; with Rattus norvegicus [13], 13%.
On to `CC(CCCCSCCCCC(C)(C(=O)O)c1ccccc1)(C(=O)O)c1ccccc1` (stereo not given), for which, in the data set with Hepatocyte (setting [26]), the IC50 turned out to be 26 µM.
Consider `CC(C)(CO)CCC[S+]([O-])CCCC(C)(C)CO`, for which the Activity was 54% in the data set with Rattus norvegicus [1]; 40% with Rattus norvegicus [2]; 12% with Rattus norvegicus [3]; 93% in the data set with Rattus norvegicus [4]; -36% with Rattus norvegicus [5]; -5% with Rattus norvegicus [6]. Also, the IC50 result with Hepatocyte (hepatocyte) is on record as “Not Active”.
For the molecule `CC(C)(CO)CCCC[S+]([O-])CCCCC(C)(C)CO`, the Activity in the data set with Rattus norvegicus [1] was 127%; with Rattus norvegicus [2], 56%; in the data set on Rattus norvegicus [3], 64%; in the data set with Rattus norvegicus [4], 233%; with Rattus norvegicus [5], -37%; in the data set on Rattus norvegicus [6], -35%. The IC50 entry in the data set with Hepatocyte (hepatocyte) was “Not Active”.
As to `CC(CO)(CCCSCCCC(C)(CO)c1ccccc1)c1ccccc1` (stereo not given), the Activity is listed as 9% in the data set on Rattus norvegicus [1]; -26% with Rattus norvegicus [2]; 8% in the data set with Rattus norvegicus [3]; 2% in the data set on Rattus norvegicus [4]; -18% in the data set with Rattus norvegicus [5]; 1% in the data set with Rattus norvegicus [6]. Moreover, the IC50 with Hepatocyte (setting [26]) stood at 41 µM.
As to `CC(CO)(CCCCSCCCCC(C)(CO)c1ccccc1)c1ccccc1` (stereo not given), in the data set on Hepatocyte (setting [26]), the IC50 was found to be 64 µM.
With `CC(C)(CO)CCCCNC(=O)NCCCCC(C)(C)CO`, the Activity in the data set with Rattus norvegicus [1] is given as 66%; in the data set with Rattus norvegicus [2], -33%; in the data set on Rattus norvegicus [3], -5%; with Rattus norvegicus [4], 92%; with Rattus norvegicus [5], -42%; with Rattus norvegicus [6], -31%. The IC50 in the data set with Hepatocyte (setting [26]) turned out to be 3.4 µM.
In the case of `CC(C)(CO)CCCSCCCC(C)(C)CO`, the IC50 in the data set on Hepatocyte (setting [26]) worked out at 15 µM. Besides, the Activity with Rattus norvegicus [8] is listed as -40%; in the data set on Rattus norvegicus [9], -14%; in the data set on Rattus norvegicus [10], 54%; in the data set on Rattus norvegicus [11], 40%; with Rattus norvegicus [12], -51%; in the data set with Rattus norvegicus [13], -34%.
On to `CC(C)(CO)CCCCOP(=O)(O)OCCCCC(C)(C)CO`, for which the Activity in the data set with Rattus norvegicus [20] is 8%; in the data set on Rattus norvegicus [21], -10%; in the data set on Rattus norvegicus [22], -13%; with Rattus norvegicus [23] it was -29%; in the data set on Rattus norvegicus [24], -17%; in the data set on Rattus norvegicus [25] it was 27%. In addition, the IC50 result in the data set with Hepatocyte (hepatocyte) is “Not Active”.
For the molecule `CC(C)(CO)CCCCNC(=O)OCCCCC(C)(C)CO`, the Activity is listed as 60% with Rattus norvegicus [1]; 10% with Rattus norvegicus [2]; 84% in the data set with Rattus norvegicus [3]; 65% with Rattus norvegicus [4]; -52% in the data set with Rattus norvegicus [5]; -4% with Rattus norvegicus [6]. Further, the IC50 in the data set with Hepatocyte (setting [26]) came to 0.8 µM.
For `CC(C)(CO)CCCCNC(=O)CCCCC(C)(C)CO`, in the data set on Hepatocyte (hepatocyte), the IC50 entry is reported as “Not Active”. For the same molecule, the Activity is -21% in the data set with Rattus norvegicus [8]; -7% with Rattus norvegicus [9]; 2% with Rattus norvegicus [10]; 20% in the data set with Rattus norvegicus [11]; -20% with Rattus norvegicus [12]; -10% with Rattus norvegicus [13].
Turning to `CC(C)(CO)CCCCOC(=O)CCCCC(C)(C)CO`, the Activity is 18% in the data set with Rattus norvegicus [1]; -25% in the data set with Rattus norvegicus [2]; -5% in the data set on Rattus norvegicus [3]; 23% in the data set with Rattus norvegicus [4]; -20% in the data set with Rattus norvegicus [5]; 7% with Rattus norvegicus [6]. In addition, the IC50 in the data set with Hepatocyte (setting [26]) was determined as 13 µM.
`CC(C)(CCCCCC(=O)CCCCCC(C)(C)C(=O)O)C(=O)O`: the Activity with Rattus norvegicus [1] is recorded as 72%; with Rattus norvegicus [2], -98%; with Rattus norvegicus [3], -99%; in the data set with Rattus norvegicus [4] it was 168%; in the data set on Rattus norvegicus [5] it was -93%; in the data set with Rattus norvegicus [6] it was -94%.
On to `CC(C)(CO)CCCCC(O)CCCCC(C)(C)CO`, for which the Activity in the data set with Rattus norvegicus [1] is 219%; in the data set on Rattus norvegicus [2], -61%; with Rattus norvegicus [3] it was -15%; with Rattus norvegicus [4] it was 222%; with Rattus norvegicus [5], -70%; in the data set on Rattus norvegicus [6], -46%. Also, the IC50 with Hepatocyte (setting [26]) came out at 6.4 µM.
For `CC(C)(CO)CCCCC(CO)CCCCC(C)(C)CO`, the Activity is 2% in the data set with Rattus norvegicus [1]; -43% in the data set on Rattus norvegicus [2]; -12% with Rattus norvegicus [3]; -2% with Rattus norvegicus [4]; -52% with Rattus norvegicus [5]; -23% with Rattus norvegicus [6]. Also, the IC50 in the data set on Hepatocyte (setting [26]) amounted to 15 µM.
Consider `CC(CO)(CCC[S+]([O-])CCCC(C)(CO)c1ccccc1)c1ccccc1` (stereo not given), for which the Activity is -36% in the data set with Rattus norvegicus [20]; 18% with Rattus norvegicus [21]; 41% with Rattus norvegicus [22]; 68% with Rattus norvegicus [23]; 81% in the data set with Rattus norvegicus [24]; -23% with Rattus norvegicus [25]. Further, the IC50 entry in the data set on Hepatocyte (hepatocyte) is reported as “Not Active”.
As to `CC(CO)(CCCC[S+]([O-])CCCCC(C)(CO)c1ccccc1)c1ccccc1` (stereo not given), the concentration for half-maximal inhibition (IC50) with Hepatocyte (setting [26]) turned out to be 81 µM.

The record behind these values is ChEMBL document CHEMBL1148579, “Influence of various central moieties on the hypolipidemic properties of long hydrocarbon chain diols and diacids” (J Med Chem, 2006).
